# Measurements published in patent US20200268832A1, “COMPOSITIONS FOR DELIVERY TO AND TREATMENT OF ATHEROSCLEROTIC PLAQUES” (Sanford Burnham Prebys Medical Discovery Institute, priority 2015, published 2020).
# Where a SMILES comes first, the peptide text is derived from it. Bridges are numbered along the chain shown (N, C = ends).
# Biological target: T1, p32 protein (Homo sapiens, UniProt Q07021)
# T1 construct: 6xHis; host or cells: Rosetta-gami-2 cells (Novagen); an E. coli strain by own knowledge
# T1 sequence (Q07021 74-282): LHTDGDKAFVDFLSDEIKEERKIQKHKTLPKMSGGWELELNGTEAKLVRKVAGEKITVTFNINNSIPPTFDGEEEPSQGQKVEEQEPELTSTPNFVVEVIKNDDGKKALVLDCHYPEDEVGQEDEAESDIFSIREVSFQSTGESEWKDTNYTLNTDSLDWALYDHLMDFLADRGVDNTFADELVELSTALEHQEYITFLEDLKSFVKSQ
# Experiment: Fluorescence polarization binding of FAM-labeled peptides to p32 (KD)
# Details: affinity of binding to p32
# Experimental: FIGS. 2A-2D are graphs showing FP- and phage binding-based validation of p32 binding peptides and hit compounds. […] Measurements were performed with PheraStar FS plate reader (BMG Labtech, Ortenberg, Germany) on 384-well plate. (B) Affinity of the 7 hit compounds in dose-dependent (8.25 μM to 100 μM) inhibition of FAM-TT1 binding to p32 in FP assay. (C) Assessment of hit compound binding to a non-target secondary protein, NRP-1, to determine the specificity of the hit compounds in FP assay. A known NRP-1 binding peptide, RPARPAR (SEQ ID NO:18), was used as a control. (D) Effect of the hit compounds on the TT1 phage binding to p32 protein. TT1 phage binding to p32 in the presence of 100 μM hit compounds was determined in ELISA-type of binding assay. Each data point presents average±S.D., n=4.
# FIG. 6 is a graph showing the effect of buffer solution on interaction of TT1 and p32. […] The binding was measured by fluorescence polarization (FP) and observed as increased FP value. Binding constants (KD) were calculated by fitting the binding curves into Michaelis-Menten kinetics. […]
# Fluorescence polarization (FP)-based assay was used for solution-based screening of compound libraries for p32 binding compounds. […] The protein was purified by IMAC using HIS-select resin (Sigma) with an imidizole gradient from 20-300 mM and eluted fractions were analyzed on analytical SDS-PAGE. […]
structure (smiles),measurement,value
"C[C@@H]1NC(=O)CNC(=O)[C@H](CCCNC(=N)N)NC(=O)[C@H](CCCCN)NC(=O)[C@@H](N)CSSC[C@@H](C(=O)O)NC(=O)[C@H]([C@@H](C)O)NC(=O)[C@H](CO)NC(=O)[C@H](CCCNC(=N)N)NC1=O [TT1, CKRGARSTC] (H-CKRGARSTC-OH; disulfide 1-9)",Kd,2300 nM
